Here are results for four compounds from US20240376094A2, “SELECTIVE BCL-XL PROTAC COMPOUNDS AND METHODS OF USE” (Les Laboratoires Servier, priority 2021, published 2024).

Format in all cases: cell-based
The subject of test [1] is MOLT-4 cells. Briefly: MOLT-4 cell viability, CTG assay. The conditions noted are these: Homo sapiens, MOLT-4, 48 h. An outline of the steps:
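Viability read as total ATP luminescence (CTG) after 48 h compound treatment, 11 points at 5-fold spacing in triplicate, cells in RPMI 1640/10% FBS. IC50 is the concentration halving signal relative to control, four-parameter fit, averaged over at least 2 experiments.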

For test [2], the target named is T1, Bcl-xL (Homo sapiens, UniProt Q07817).
T1 construct: Measured levels of Bcl-xL protein of HCT116 cells treated with the tested compounds; host or cells: HCT116
The test is described as follows: HCT116 Bcl-xL degradation, capillary-based immunoassay (WES). The conditions noted are these: for remaining activity at 0.01 µM / remaining activity at 0.1 µM: HCT-116, 24 h, % of untreated cells; for remaining activity at 0.01 µM: HCT116, 10 nM; for remaining activity at 0.1 µM: HCT116, 100 nM. Summed up:
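Bcl-xL protein level by capillary WES immunoassay in HCT116 lysates, as % of untreated after cofilin normalization. Compound exposure was 24 h at 10 and 100 nM and/or a 9-point series, in quadruplicate. Four-parameter fitting gave the DC50.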

Test [3] has as its system MOLT-4 cells. The test is described as follows: MOLT-4 cell viability, MTT assay. The conditions noted are these: Homo sapiens, MOLT-4, 48 h. The source says:
The MTT colorimetric assay is based on the mitochondrial reduction of tetrazolium salt by living cells. The viable cell number is proportional to the production of formazan salts, which can be read spectrophotometrically at 540 nm. The CTG luminescent assay (CellTiter GLO, Promega) is based on a reagent which lyses cells and measures total adenosine triphosphate (ATP) content. The viable cell number is proportional to the production of ATP.
MOLT-4 cells were purchased from ATCC and cultivated in RPMI 1640 supplemented with 10% heat inactivated fetal bovine serum, penicillin (100 IU/mi), streptomycin (100 μg/ml) and L-glutamine (2 mM). Cells were cultured at 37° C. in a humidified atmosphere containing 5% […].
For MTT assay, cells were seeded in 96 microwell plates (150 μL per well) and exposed to the compounds for 48 h (3.16 fold serially diluted; 9 concentrations each, triplicates). At the end of incubation time, 15 μL of MTT solution (5 mg/ml) were added per well and the cells were incubated for another 4 h. Then, 100 μL of 10% Sodium Dodecyl Sulfate (SDS)/HCl 10 mM were added per well and the plate was incubated overnight, before measurement of optical density at 540 nm.
IC50, were calculated using standard four-parametric curve fitting. IC50 is defined as the compound concentration at which the MTT or CTG signal is reduced to 50% of that measured for the control. Results shown in Table 14 represent the mean of at least 2 independent experiments.
(Tetrazolium assays rely on reduction of a dye to a coloured formazan, in cell work by metabolically active cells.)

Each structure is given as a SMILES string.

T1 sequence (Q07817 whole entry): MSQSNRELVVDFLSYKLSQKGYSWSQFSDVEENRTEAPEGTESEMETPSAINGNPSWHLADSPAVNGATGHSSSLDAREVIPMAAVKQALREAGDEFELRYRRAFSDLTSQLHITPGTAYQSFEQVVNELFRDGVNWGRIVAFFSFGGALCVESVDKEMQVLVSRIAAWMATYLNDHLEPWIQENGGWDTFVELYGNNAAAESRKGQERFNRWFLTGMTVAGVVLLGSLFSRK

As a reminder, the IC50 is the concentration needed to halve the response being measured. A low value points to greater potency in that assay. The DC50 is the concentration giving 50% degradation. Read a low DC50 as a more potent degrader. In general, remaining activity refers to the share of the control activity or signal that is left under treatment. High values mean much activity left, low ones little activity left. On to `Cc1c(Nc2nc3ccccc3s2)nnc2c1CCCN2c1ccc(-c2cnn(CC34CC5(C)CC(C)(C3)CC(OCCN(C)CCOCCNc3cccc6c3C(=O)N(C3CCC(=O)NC3=O)C6=O)(C5)C4)c2C)c(C(=O)O)n1` (stereo not shown) [Example 9, 6-[3-(1,3-benzothiazol-2-ylamino)-4-methyl-6,7-dihydro-5H-pyrido[2,3-c]pyridazin-8-yl]-3-[1-[[3-[2-[2-[2-[[2-(2,6-dioxo-3-piperidyl)-1,3-dioxo-isoindolin-4-yl]amino]ethoxy]ethyl-methyl-amino]ethoxy]-5,7-dimethyl-1-adamantyl]methyl]-5-methyl-pyrazol-4-yl]pyridine-2-carboxylic acid], for which half-maximal inhibition in test [1] (IC50) required 12.9 nM. In addition, the DC50 in test [2] (HCT116, 24 h, 9-point serial dilution) was 10.5 nM. Moreover, in test [2], the remaining activity at 0.01 µM was 61% and the remaining activity at 0.1 µM came out at 41%. The same compound yielded an IC50 in test [3] of 5.21 nM.

Take `Cc1ncsc1-c1ccc([C@H](C)NC(=O)C2C[C@@H](O)CN2C(=O)C(NC(=O)CCCCCN(C)CCOC23CC4(C)CC(C)(CC(Cn5ncc(-c6ccc(N7CCCc8c7nnc(Nc7nc9ccccc9s7)c8C)nc6C(=O)O)c5C)(C4)C2)C3)C(C)(C)C)cc1` (stereo in doubt) [Example 8, 6-[3-(1,3-benzothiazol-2-ylamino)-4-methyl-6,7-dihydro-5H-pyrido[2,3-c]pyridazin-8-yl]-3-[1-[[3-[2-[[6-[[(1S)-1-[(2S,4R)-4-hydroxy-2-[[(1S)-1-[4-(4-methylthiazol-5-yl)phenyl]ethyl]carbamoyl]pyrrolidine-1-carbonyl]-2,2-dimethyl-propyl]amino]-6-oxo-hexyl]-methyl-amino]ethoxy]-5,7-dimethyl-1-adamantyl]methyl]-5-methyl-pyrazol-4-yl]pyridine-2-carboxylic acid]: in test [1], 34.3 nM corresponded to half-maximal inhibition (IC50). Moreover, in test [2], the remaining activity at 0.01 µM was found to be 54% and the remaining activity at 0.1 µM was 37%. The compound further returned a concentration for half-maximal inhibition (IC50) in test [3] of 6.56 nM.

With `Cc1ncsc1-c1ccc(CNC(=O)[C@@H]2C[C@@H](O)CN2C(=O)[C@@H](NC(=O)CCC(=O)N2CCN(CC#Cc3ccc(OCCCc4sc(N5CCCc6c5nnc(Nc5nc7ccccc7s5)c6C)nc4C(=O)O)c(F)c3)CC2)C(C)(C)C)cc1` [Example 21, 2-[3-(1,3-benzothiazol-2-ylamino)-4-methyl-6,7-dihydro-5H-pyrido[2,3-c]pyridazin-8-yl]-5-[3-[2-fluoro-4-[3-[4-[4-[[(1S)-1-[(2S,4R)-4-hydroxy-2-[[4-(4-methylthiazol-5-yl)phenyl]methylcarbamoyl]pyrrolidine-1-carbonyl]-2,2-dimethyl-propyl]amino]-4-oxo-butanoyl]piperazin-1-yl]prop-1-ynyl]phenoxy]propyl]thiazole-4-carboxylic acid], the half-maximal inhibitory concentration (IC50) in test [1] was determined as 23.6 nM; in test [3] it was 11.5 nM. In addition, the remaining activity at 0.01 µM in test [2] worked out at 73%. The remaining activity at 0.1 µM in test [2] is 35%.

Turning to `Cc1cc(N(CCCCCn2cc(COCCOCCOCC(=O)Nc3cccc4c3CN(C3CCC(=O)NC3=O)C4=O)nn2)c2ccc(-c3cnn(CC45CC6(C)CC(C)(C4)CC(OCCN(C)C)(C6)C5)c3C)c(C(=O)O)n2)nnc1Nc1nc2ccccc2s1` (stereo not shown) [Example 28, 6-[[6-(1,3-benzothiazol-2-ylamino)-5-methyl-pyridazin-3-yl]-[5-[4-[2-[2-[2-[[2-(2,6-dioxo-3-piperidyl)-1-oxo-isoindolin-4-yl]amino]-2-oxo-ethoxy]ethoxy]ethoxymethyl]triazol-1-yl]pentyl]amino]-3-[1-[[3-[2-(dimethylamino)ethoxy]-5,7-dimethyl-1-adamantyl]methyl]-5-methyl-pyrazol-4-yl]pyridine-2-carboxylic acid], in test [2], the remaining activity at 0.01 µM amounted to 81% and the remaining activity at 0.1 µM worked out at 46%. For the same compound, the half-inhibitory concentration (IC50) in test [3] was 8.63 nM.
